From PMC8584303 (International Journal of Molecular Sciences, 2021)

Key:
LdGSTu1 [1] = target: T1, LdGSTu1 (Leptinotarsa decemlineata, UniProt A0A1P8PEY0); assay: inhibition of GSH-CDNB conjugation by the recombinant enzyme (residual activity at […]); type: biochemical
T1 construct: full-length LdGSTu1
T1 sequence (A0A1P8PEY0 1-230): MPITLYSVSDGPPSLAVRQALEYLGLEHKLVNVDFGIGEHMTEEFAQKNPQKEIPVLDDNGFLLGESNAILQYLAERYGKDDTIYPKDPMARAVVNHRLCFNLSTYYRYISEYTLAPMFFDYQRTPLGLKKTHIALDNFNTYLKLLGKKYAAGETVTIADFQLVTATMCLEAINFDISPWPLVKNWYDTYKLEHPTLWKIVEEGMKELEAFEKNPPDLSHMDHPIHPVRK

LdGSTu1 [2] = target: T1, LdGSTu1; assay: inhibition of GSH-CDNB conjugation by the recombinant enzyme (residual activity […] at […], […] at […]); type: biochemical
LdGSTu1 [3] = target: T1, LdGSTu1; assay: steady-state enzyme kinetics of the purified enzyme (Km); type: biochemical
[4] = substrate: CC(=O)Oc1ccc([N+](=O)[O-])cc1; assay: as above; type: biochemical, Leptinotarsa decemlineata; conditions: GSH

C/C(=N\C#N)N(C)Cc1ccc(Cl)nc1 [acetamiprid]
% (LdGSTu1 [1]): 39.1% residual activity at 5 mM

O=[N+]([O-])NC1=NCCN1Cc1ccc(Cl)nc1 [imidacloprid]
% (LdGSTu1 [1]): 66.4% residual activity at 5 mM

C=C(CC)C(=O)c1ccc(OCC(=O)O)c(Cl)c1Cl [EA, ethacrynic acid]
% (LdGSTu1 [2]): 49.6% residual activity at 200 µM

CCOP(=S)(OCC)Oc1cc(C)nc(C(C)C)n1 [diazinon]
% (LdGSTu1 [1]): 75.3% residual activity at 5 mM

O=[N+]([O-])c1ccc(Cl)c([N+](=O)[O-])c1 [CDNB, 1-chloro-2,4-dinitrobenzene]
Km (LdGSTu1 [3]): 542 ± 88 µM

CN1COCN(Cc2cnc(Cl)s2)/C1=N\[N+](=O)[O-] [thiamethoxam]
% (LdGSTu1 [1]): 72.3% residual activity at 5 mM

CCOP(=S)(OCC)Oc1nc(Cl)c(Cl)cc1Cl [chlorpyrifos]
% (LdGSTu1 [1]): 70.5% residual activity at 5 mM

B1: LdGSTu1 (Leptinotarsa decemlineata) (protein)
chain: MPITLYSVSDGPPSLAVRQALEYLGLEHKLVNVDFGIGEHMTEEFAQKNPQKEIPVLDDNGFLLGESNAILQYLAERYGKDDTIYPKDPMARAVVNHRLCFNLSTYYRYISEYTLAPMFFDYQRTPLGLKKTHIALDNFNTYLKLLGKKYAAGETVTIADFQLVTATMCLEAINFDISPWPLVKNWYDTYKLEHPTLWKIVEEGMKELEAFEKNPPDLSHMDHPIHPVRK
notes: full-length LdGSTu1
Km [4]: 1830 ± 572 µM
Vmax [4]: 13.5 µM/min
kcat [4]: 0.128 ± 0.0202 s⁻¹
kcat/Km [4]: 70 M⁻¹ s⁻¹
